Experimental data taken from patent publication US11390621B2, “Chiral indole compounds and their use” (ARIAGEN, INC., priority 2019, dated 2022).
Values joined by “and” are separate entries in the source; they are usually repeats but may differ in a detail not shown here. Identical values can stand only once.

Experiments:
[1] = target: T1, AhR (Homo sapiens, UniProt P35869); test: EROD assay (7-ethoxy-resorufin-O-deethylase; CYP1A1 activity) in human HepG2 cells; assay type: cell-based; conditions: for EC90: HepG2, human HepG2 cells
T1 construct: host or cells: human HepG2 cells
T1 sequence (P35869 11-848): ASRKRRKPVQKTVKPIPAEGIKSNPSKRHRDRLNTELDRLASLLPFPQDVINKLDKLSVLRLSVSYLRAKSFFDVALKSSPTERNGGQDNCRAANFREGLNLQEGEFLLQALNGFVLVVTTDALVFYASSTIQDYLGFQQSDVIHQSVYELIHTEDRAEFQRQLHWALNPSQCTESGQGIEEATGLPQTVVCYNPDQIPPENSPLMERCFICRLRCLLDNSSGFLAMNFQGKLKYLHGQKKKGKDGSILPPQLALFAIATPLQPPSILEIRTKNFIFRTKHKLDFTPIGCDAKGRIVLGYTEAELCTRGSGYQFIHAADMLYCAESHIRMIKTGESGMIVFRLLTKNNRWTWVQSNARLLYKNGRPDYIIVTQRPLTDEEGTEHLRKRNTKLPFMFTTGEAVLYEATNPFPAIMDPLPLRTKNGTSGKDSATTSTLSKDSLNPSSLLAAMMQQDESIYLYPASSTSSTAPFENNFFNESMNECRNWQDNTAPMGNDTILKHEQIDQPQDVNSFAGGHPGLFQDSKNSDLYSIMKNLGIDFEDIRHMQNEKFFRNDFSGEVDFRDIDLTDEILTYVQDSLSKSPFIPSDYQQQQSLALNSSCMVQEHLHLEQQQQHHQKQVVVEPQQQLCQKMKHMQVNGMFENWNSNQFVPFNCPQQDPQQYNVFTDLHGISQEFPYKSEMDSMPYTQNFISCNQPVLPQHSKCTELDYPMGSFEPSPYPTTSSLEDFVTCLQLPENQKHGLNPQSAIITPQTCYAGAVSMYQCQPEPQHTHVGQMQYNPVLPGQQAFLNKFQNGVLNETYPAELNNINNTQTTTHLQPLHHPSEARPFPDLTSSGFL
Protocol: CYP1A1 induction is under the control of the AhR signaling pathway. This Example describes an in vitro assay (7-ethoxy-resorufin-O-deethylase (EROD) assay) that evaluated the AhR modulating activities of the indole compounds described herein. In this assay, the indole compounds were incubated with human HepG2 cells or mouse Hepa1-6 cells. The activity of CYP1A1 in the cells was measured by the conversion of substrate 7-ethoxyresorufin, with the readout being a fluorescence signal associated with the conversion product. The EC50 values of the indole compounds as well as the maximum luminescence induced by them in the assay were determined.
Human HepG2 cells were obtained from Sigma Aldrich (Catalog 85011430-1VL).
Human HepG2 cells were grown to 60-80% confluency in tissue culture flasks, lifted with non-enzymatic cell dissociation solution (cell stripper), seeded in a 384-well plate at 5,000 cells per well, treated with the test compounds, and incubated for 20 hours overnight at 37° C. The treatment medium was removed and a solution of substrate 7-ethoxyresorufin (ETX) was added to initiate the reaction. The plate was incubated at 37° C. for 30 minutes. The reaction was subsequently terminated by adding tempered methanol. Fluorescent emission was measured at 590 nm with excitation at 530 nm in a FLEXSTATION III instrument (Molecular Devices).

[2] = CYP profiling: turnover in human liver microsomes, 30 min, no inhibitor; assay type: in vitro ADME; parameters: % Compound Metabolized at 30 min, No Inhibitor: concentration or dose not given beside the values; conditions: HLMs
Protocol: (§1) In order to investigate the contributions of CYP1A2 and CYP3A4 to the metabolism of the compounds of the present disclosure, human liver microsomes were incubated with the test compounds for 30 minutes in the presence of selective chemical inhibitors furafylline (1A2) and ketoconazole (3A4).

[3] = target: T2, CYP1A2 (Homo sapiens, UniProt P05177); test: CYP profiling: human liver microsomes with CYP1A2 inhibitor furafylline; assay type: in vitro ADME; parameters: % Compound Metabolized at 30 min, CYP1A2 Inhibitor: concentration or dose not given beside the values; conditions: HLMs; for % Inhibition Relative to Negative Control, 1A2: 30 min
T2 construct: from tissue; host or cells: human liver microsomes
T2 sequence (P05177 1-516): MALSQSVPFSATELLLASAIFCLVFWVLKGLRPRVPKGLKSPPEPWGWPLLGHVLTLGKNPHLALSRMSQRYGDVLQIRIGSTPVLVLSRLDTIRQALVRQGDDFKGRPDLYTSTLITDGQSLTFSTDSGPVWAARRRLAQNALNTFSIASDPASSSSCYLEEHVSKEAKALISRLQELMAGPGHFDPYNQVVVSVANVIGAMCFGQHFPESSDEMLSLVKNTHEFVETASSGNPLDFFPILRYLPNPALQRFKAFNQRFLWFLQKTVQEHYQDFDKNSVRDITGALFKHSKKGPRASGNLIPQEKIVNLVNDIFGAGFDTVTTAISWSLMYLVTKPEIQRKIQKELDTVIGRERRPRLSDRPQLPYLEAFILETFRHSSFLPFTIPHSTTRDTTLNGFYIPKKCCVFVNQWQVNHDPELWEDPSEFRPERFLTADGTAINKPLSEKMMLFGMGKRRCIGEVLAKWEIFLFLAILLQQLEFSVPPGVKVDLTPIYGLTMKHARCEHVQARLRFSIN
Protocol: as §1

[4] = target: T3, CYP3A4 (Homo sapiens, UniProt P08684); test: CYP profiling: human liver microsomes with CYP3A4 inhibitor ketoconazole; assay type: in vitro ADME; parameters: % Compound Metabolized at 30 min, CYP3A4 Inhibitor: concentration or dose not given beside the values; conditions: HLMs; for % Inhibition Relative to Negative Control, 3A4: 30 min
T3 construct: from tissue; host or cells: human liver microsomes
Protocol: as §1

T3 sequence (P08684 whole entry): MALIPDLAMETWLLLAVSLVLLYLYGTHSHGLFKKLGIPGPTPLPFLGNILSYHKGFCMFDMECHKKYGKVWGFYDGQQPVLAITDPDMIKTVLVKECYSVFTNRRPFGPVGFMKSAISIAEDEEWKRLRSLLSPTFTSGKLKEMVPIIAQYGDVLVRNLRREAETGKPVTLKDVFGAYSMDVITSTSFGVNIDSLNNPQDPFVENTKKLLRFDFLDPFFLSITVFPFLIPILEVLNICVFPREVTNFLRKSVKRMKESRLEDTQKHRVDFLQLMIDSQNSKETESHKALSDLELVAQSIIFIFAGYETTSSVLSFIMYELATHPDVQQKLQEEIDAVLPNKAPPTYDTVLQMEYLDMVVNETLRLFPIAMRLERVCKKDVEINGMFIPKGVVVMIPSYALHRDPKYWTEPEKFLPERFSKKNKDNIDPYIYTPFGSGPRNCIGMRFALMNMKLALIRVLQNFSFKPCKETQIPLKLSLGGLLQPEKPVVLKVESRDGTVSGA

| SMILES | EC90 ([1]; Plate 1) | EC50 ([1]; human HepG2 cells, Plate 1) | % Compound Metabolized at 30 min, No Inhibitor [2] | % Compound Metabolized at 30 min, CYP1A2 Inhibitor [3] | % Inhibition Relative to Negative Control, 1A2 [3] | % Compound Metabolized at 30 min, CYP3A4 Inhibitor [4] | % Inhibition Relative to Negative Control, 3A4 [4] | EC90 ([1]; Plate 2) | fold more potent than ARI-219 by EC50 ([1]; human HepG2 cells) | fold more potent than ARI-219 by EC90 ([1]; human HepG2 cells) | EC50 ([1]; human HepG2 cells, Plate 2) | metabolic turnover (in words) [2] | fold more potent than ARI-164 by EC50 ([1]; human HepG2 cells) | fold more potent than ARI-164 by EC90 ([1]; human HepG2 cells) | fold more potent than ARI-187 by EC50 ([1]; human HepG2 cells) | fold more potent than ARI-187 by EC90 ([1]; human HepG2 cells) |
| --- | --- | --- | --- | --- | --- | --- | --- | --- | --- | --- | --- | --- | --- | --- | --- | --- |
| O=C(c1nc([C@@H](O)C(F)(F)F)cs1)c1c[nH]c2cc(F)ccc12 [ARI-211] | 0.183 µM | 0.0359 µM | 50% | 67% | None | 59% | None | – | – | – | – | – | – | – | – | – |
| CC[C@H](N)c1csc(C(=O)c2c[nH]c3ccc(F)cc23)n1 [ARI-218] | – | – | 16% | 17% | None | 0% | 100% | 0.0079 µM | 19.7 × | 53 × | 0.0063 µM | – | – | – | – | – |
| NC1(c2csc(C(=O)c3c[nH]c4cc(F)ccc34)n2)CC1 [ARI-225, (4-(1-aminocyclopropyl)thiazol-2-yl)(6-fluoro-1H-indol-3-yl)methanone] | – | – | 39% | 10% | 74% | 29% | 26% | 0.109 µM | – | – | 0.0468 µM | high turnover | – | – | – | – |
| O=C(c1nc([C@H](O)C(F)(F)F)cs1)c1c[nH]c2cc(F)ccc12 [ARI-212] | 0.15 µM | 0.0219 µM | 43% | 51% | None | 24% | 44% | – | – | – | – | – | – | – | – | – |
| CC[C@@H](N)c1csc(C(=O)c2c[nH]c3cc(F)ccc23)n1 [ARI-187, (R)-(4-(1-aminopropyl)thiazol-2-yl)(6-fluoro-1H-indol-3-yl)methanone] | 0.152 µM | 0.0556 µM | 4% | 7% | None | 3% | 25% | – | – | – | – | – | – | – | – | – |
| CC(C)(O)c1csc(C(=O)c2c[nH]c3cc(F)ccc23)n1 [ARI-220, (6-fluoro-1H-indol-3-yl)(4-(2-hydroxypropan-2-yl)thiazol-2-yl)methanone] | – | – | 41% | 0% | 100% | 27% | 34% | 0.476 µM | – | – | 0.372 µM | – | – | – | – | – |
| CCC(=O)c1csc(C(=O)c2c[nH]c3cc(F)ccc23)n1 [ARI-143, 1-(2-(6-fluoro-1H-indole-3-carbonyl)thiazol-4-yl)propan-1-one] | – | – | 69% and 91% | 32% and 17% | 54% and 81% | 82% and 92% | None | 0.347 µM | – | – | 0.0952 µM | – | – | – | – | – |
| CC(C)(N)c1csc(C(=O)c2c[nH]c3cc(F)ccc23)n1 [ARI-226, (4-(2-aminopropan-2-yl)thiazol-2-yl)(6-fluoro-1H-indol-3-yl)methanone] | – | – | 6% | 16% | None | 11% | None | 0.033 µM | – | – | 0.0246 µM | low turnover | 4.2 × | 4.2 × | – | – |
| O=C(c1nc(C2(O)CC2)cs1)c1c[nH]c2cc(F)ccc12 [ARI-221, (6-fluoro-1H-indol-3-yl)(4-(1-hydroxycyclopropyl)thiazol-2-yl)methanone] | – | – | 95% | 28% | 71% | 82% | 14% | 0.0345 µM | – | – | 0.0261 µM | – | – | – | – | – |
| N[C@H](c1csc(C(=O)c2c[nH]c3ccccc23)n1)C(F)(F)F [ARI-228] | – | – | 89% | 23% | 74% | 75% | 16% | 0.217 µM | – | – | 0.0656 µM | high turnover | – | – | – | – |
| CC[C@@H](N)c1csc(C(=O)c2c[nH]c3ccc(F)cc23)n1 [ARI-219] | – | – | 13% | 5% | 62% | 23% | None | 0.419 µM | – | – | 0.124 µM | – | – | – | – | – |
| CC[C@H](N)c1csc(C(=O)c2c[nH]c3cc(F)ccc23)n1 [ARI-186, (S)-(4-(1-aminopropyl)thiazol-2-yl)(6-fluoro-1H-indol-3-yl)methanone] | 0.0074 µM | 0.0058 µM | 13% | 10% | 23% | 12% | 8% | – | – | – | – | very low turnover | 17.8 × | 18.0 × | 9.5 × and 9.6 × | 20.5 × and 20.6 × |
| N[C@H](c1csc(C(=O)c2c[nH]c3cc(F)ccc23)n1)C(F)(F)F [ARI-223] | – | – | 79% | 12% | 85% | 42% | 47% | 0.103 µM | – | – | 0.0226 µM | high turnover | – | – | – | – |
| N[C@@H](c1csc(C(=O)c2c[nH]c3ccccc23)n1)C(F)(F)F [ARI-229] | – | – | 0% | 0% | None | 0% | None | 0.204 µM | – | – | 0.0503 µM | – | – | – | – | – |
